Source: PubChem BioAssay (NCI)
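Following 48 hours of exposure in 96-well plates, responses at five concentrations were used to interpolate endpoints linearly. TGI: total growth inhibition.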

What was measured:
Experiment in all cases: NCI-60 cell line screen, 48 h
[1] = system: MALME-3M melanoma
[2] = system: HL-60(TB) leukemia
[3] = system: HOP-62 NSCLC
[4] = system: K-562 leukemia
[5] = system: SK-OV-3 ovarian
[6] = system: SN12C renal
[7] = system: OVCAR-3 ovarian
[8] = system: CCRF-CEM leukemia
[9] = system: U251 CNS
[10] = system: OVCAR-4 ovarian
[11] = system: SW-620 colon
[12] = system: M14 melanoma
[13] = system: A498 renal
[14] = system: BT-549 breast
[15] = system: SNB-75 CNS
[16] = system: HCT-15 colon
[17] = system: MCF7 breast
[18] = system: 786-0 renal
[19] = system: MDA-MB-435
[20] = system: NCI-H226 lung

SMILES	TGI [1] [µM]	TGI [2] [µM]	TGI [3] [µM]	TGI [4] [µM]	TGI [5] [µM]	TGI [6] [µM]	TGI [7] [µM]	TGI [8] [µM]	TGI [9] [µM]	TGI [10] [µM]	TGI [11] [µM]	TGI [12] [µM]	TGI [13] [µM]	TGI [14] [µM]	TGI [15] [µM]	TGI [16] [µM]	TGI [17] [µM]	TGI [18] [µM]	TGI [19] [µM]	TGI [20] [µM]
CN(CCNC(=O)c1nn(-c2ccc(Cl)cc2Cl)c2c1Cc1ccccc1-2)CCNC(=O)c1nn(-c2ccc(Cl)cc2Cl)c2c1Cc1ccccc1-2	3.42	3.57	> 45.8	> 26.3	97.9	20.4	17.4	7.82	7.27	> 20	4.88	3.46	12.9	38.2	> 48.2	5.97	8.31	4.47	2.43	–
O=C1CCCCCCCCCCC1CN1CCOCC1 (centres undefined)	> 100	> 100	> 100	> 100	> 100	> 100	> 100	> 100	> 100	> 100	> 100	> 100	–	> 100	–	> 100	> 100	> 100	> 100	> 100
NNC(=O)CC(=O)Nc1ccc(S(=O)(=O)c2ccc(NC(=O)CC(=O)NN)cc2)cc1	–	> 100	> 100	> 100	> 100	> 100	> 100	> 100	> 100	> 100	> 100	> 100	> 100	> 100	> 100	> 100	–	> 100	> 100	> 100
Cc1cc(C#N)c(Nc2ccc(F)cc2[N+](=O)[O-])s1	> 100	–	> 100	> 100	> 100	> 100	> 100	> 100	> 100	> 100	> 100	> 100	> 100	> 100	> 100	> 100	–	> 100	> 100	> 100
O=C1NC(=O)C(C(c2ccc([N+](=O)[O-])cc2)C2C(=O)NC(=O)NC2=O)C(=O)N1	> 100	> 100	> 100	> 100	–	> 100	> 100	> 100	> 100	> 100	> 100	> 100	> 100	> 100	–	> 100	> 100	> 100	> 100	> 100
CCOC(=O)/C(=C\c1cn(C(C)=O)c2ccccc12)P(C)(=O)OCC (centres undefined)	> 100	> 100	> 100	> 100	66.1	> 100	> 100	> 100	> 100	–	> 100	> 100	> 100	61.3	36.5	> 100	> 100	> 100	> 100	–
Cc1oc2nc(N(C)C)nc(NN)c2c1C	–	> 100	> 100	> 100	–	> 100	> 100	> 100	> 100	> 100	> 100	> 100	> 100	> 100	> 100	> 100	–	> 100	> 100	> 100
N#Cc1sc2c(c1OC(=O)c1ccc(Cl)cc1Cl)c(=O)n(-c1ccccc1)c(=S)n2-c1ccccc1	–	46.7	96.4	68	> 100	57.8	76.3	26.7	75.8	66.5	72.7	36.6	61.2	–	> 100	59.5	73.4	77.3	46.2	66.8
O=S(=O)(O)c1cc(S(=O)(=O)O)c2c(N=Nc3ccc(S(=O)(=O)O)c4ccccc34)c(O)ccc2c1	> 100	> 100	> 100	> 100	> 100	> 100	> 100	> 100	> 100	> 100	> 100	> 100	–	> 100	> 100	> 100	–	> 100	> 100	> 100
CN(C)/C=C/c1c2c(nc3ccccc13)C(=O)c1cccnc1C2=O	2.26	2.53	0.435	3.75	1.16	2.57	1.09	9.28	5.9	4.01	1.48	0.597	2.31	1.6	4.66	1.07	–	1.33	1.56	–
c1cc(C2=NCCO2)c2ccsc2c1	> 100	> 100	> 100	> 100	> 100	> 100	> 100	> 100	> 100	> 100	> 100	> 100	> 100	–	99.1	> 100	> 100	> 100	> 100	> 100
CCOc1cc(C2SCC(=O)N2c2ccc3c(c2)Oc2c(Cl)c4c(c(Cl)c2=N3)Oc2cc(N3C(=O)CSC3c3ccc(O)c(OCC)c3)ccc2N=4)ccc1O (centres undefined)	–	> 100	> 100	> 100	–	–	> 100	–	> 100	> 100	> 100	63.8	> 100	> 100	50.5	> 100	> 100	> 100	> 100	66.2
CC(C)(C)OC(=O)NCCC1CNc2ccccc21 (centres undefined)	> 100	–	> 100	> 100	> 100	–	> 100	–	> 100	> 100	> 100	> 100	> 100	> 100	> 100	> 100	> 100	> 100	> 100	–
O=C1c2cn[nH]c2N=C(Nc2ccccc2)C1N=Cc1ccc([N+](=O)[O-])cc1 (centres undefined)	> 10	> 10	–	> 10	–	> 10	> 10	> 10	> 10	> 10	–	> 10	–	> 10	> 10	–	> 10	> 10	> 10	> 10
C/C=C\C(CC(=O)NCCC1CN(C(=O)OCc2ccccc2)c2ccccc21)CC(=O)OC (centres undefined)	> 100	–	> 100	> 100	> 100	–	> 100	> 100	> 100	> 100	> 100	> 100	> 100	> 100	> 100	> 100	> 100	> 100	> 100	–
CCOP(=O)(Nc1ccc(-c2ccc(N)cc2)cc1)OCC	> 100	–	> 100	> 100	> 100	–	> 100	–	> 100	> 100	–	> 100	> 100	> 100	> 100	> 100	> 100	> 100	> 100	–
O=C(O)c1ccccc1/C=C1/Cc2ccc3c(c2C1=O)CCC3	> 100	48	> 100	> 100	–	> 100	95.2	> 100	> 100	> 100	> 100	> 100	> 100	96.8	> 100	> 100	> 100	> 100	74.9	90.8
CCOc1ccccc1Nc1ccc(N)cc1S(=O)(=O)O	> 100	–	> 100	> 100	–	> 100	> 100	–	> 100	> 100	> 100	> 100	> 100	> 100	> 100	> 100	–	> 100	> 100	> 100
CC(ON1[C@](C)(c2ccccc2)CC[C@@]1(C)c1ccccc1)c1ccccc1 (some centres undefined)	> 100	61.5	> 100	> 100	> 100	> 100	> 100	52.5	> 100	> 100	> 100	> 100	–	42.2	54.6	> 100	–	> 100	> 100	> 100
COc1ccccc1/C=N/Nc1nnc2c3ccccc3c3ncccc3c2n1	> 100	> 100	49.2	> 100	> 100	> 100	> 100	78	> 100	60.1	> 100	> 100	–	> 100	49.3	> 100	> 100	90.6	> 100	–
